Results taken from patent US5248221A, “Antifouling coating composition comprising lactone compounds, method for protecting aquatic structures, and articles protected against fouling organisms” (Rohm and Haas Company, priority 1992, dated 1993).
In brackets after ≈: the same amount, converted by molar mass.

Experiments:
[1] = system: cyprid larvae of the barnacle Balanus amphitrite; test: Settlement assay for cyprid-stage barnacle larvae (% settlement)
Procedure: All compounds were tested for their ability to inhibit settlement by cyprid larvae of the barnacle Balanus amphitrite . […] Controls consisted of barnacle larvae and filtered seawater added to the dishes or vials without test compound. Dishes were then incubated for 20-24 hrs at 28° C. with light for approximately 15 hours and in darkness for approximately 9 hours. The dishes or vials were then removed from the incubator, examined under a dissecting microscope to determine whether larvae were living or dead. Larvae were then killed by addition of several drops of 10% formalin solution. Settlement rate was quantified as number of larvae that had attached to the dish or vial surface, expressed as a percentage of total larvae in the dish or vial. Experiments were performed in duplicate.
A number of lactones were tested for control of barnacle settlement. All lactones were tested at a concentration of 3×10^-6 M in dishes containing seawater. The larvae were added and the test conducted as described above.
Five ml of each solution were added to duplicate dishes. The larvae were then added to the dishes and the test conducted as described above.
Aliquots of these solutions were taken and added to duplicate dishes. […] The larvae were then added to the dishes and the test conducted as described above.
A series of solutions of a-angelica lactone in seawater at concentrations ranging from 500 μg/ml to 5 ng/ml were prepared. Aliquots of these solutions were taken and added to duplicate dishes. […] The larvae were then added to the dishes and the test conducted as described above.
A solution of 2-coumaranone (25 μg in 50 ml of filtered, aged seawater) was prepared. The larvae were then added to the dishes and the test conducted as described above.
A series of solutions of γ-decalactone in seawater at concentrations ranging from 500 μg/ml to 5 pg/ml were prepared. Aliquots of these solutions were taken and added to duplicate dishes. […] The larvae were then added to the dishes and the test conducted as described above.
A series of solutions of γ-valerolactone in seawater at concentrations ranging from 500 μg/ml to 500 pg/ml were prepared. Aliquots of these solutions were taken and added to duplicate dishes. […] The larvae were then added to the dishes and the test conducted as described above.

nauplius stage larvae = test: whole plant or invertebrate; settings: for LC50: Amphibalanus amphitrite, read-out: ED50 (half-maximal inhibition)
Procedure: Toxicity assays were conducted by adding nauplius stage larvae to 50×5 mm polystyrene Petri dishes or glass vials containing 5 ml of 100 kDa iltered seawater. […] Dishes or vials receiving no test compound served as controls. The dishes or vials were incubated at 28° C. with a 15:9 light:dark cycle. […] The number of living and dead larvae were then counted. Probit analysis was used to obtain concentrations corresponding to half-maximal inhibition (EC50 values).

[2] = Table 1, 3×10^-6 M in seawater, dishes, Control 35

In the case of `O=C1Cc2ccccc2O1` [2-coumaranone], the “% Settlement” value ([1]; Table 6 (Example 6), nominal 5 ng/ml, Control 58) is reported as 54%, the “% Settlement” value ([1]; Table 6 (Example 6), nominal 50 ng/ml, Control 58) is reported as 61% and the “% Settlement” value ([1]; Table 6 (Example 6), nominal 500 ng/ml, Control 58) is reported as 59%. For the same compound, the “% Settlement” value ([1]; Table 6 (Example 6), nominal 5 μg/ml, Control 58) was 51%, the “% Settlement” value ([1]; Table 6 (Example 6), nominal 50 μg/ml, Control 58) was 64% and the “% Settlement” value ([1]; Table 6 (Example 6), nominal 500 μg/ml, Control 58) was 0%.
In the case of `C=C1C(=O)O[C@@H]2C[C@@]3(C)CCC[C@H](C)C3=C[C@H]12` [alantolactone], the “ED50 (half-maximal inhibition)” value (nauplius stage larvae; glass) is reported as 0.5 µg/mL (≈ 2.15 µM).
For `CC1=CCC(=O)O1` [α-angelica lactone], the “% Settlement” value ([1]; Table 4 (Example 4), 5 ng/ml, Control 62) was 62%, the “% Settlement” value ([1]; Table 4 (Example 4), 50 ng/ml, Control 62) was 65% and the “% Settlement” value ([1]; Table 4 (Example 4), 500 ng/ml, Control 62) was 60%. The “% Settlement” value ([1]; Table 4 (Example 4), 5 μg/ml, Control 62) was 54%, the “% Settlement” value ([1]; Table 4 (Example 4), 50 μg/ml, Control 62) was 39% and the “% Settlement” value ([1]; Table 4 (Example 4), 500 μg/ml, Control 62) was 0%. The “% Settlement” value ([1]; Table 5 (Example 5, second test), 5 ng/ml, Control 66) was 41%, the “% Settlement” value ([1]; Table 5 (Example 5, second test), 50 ng/ml, Control 66) was 53% and the “% Settlement” value ([1]; Table 5 (Example 5, second test), 500 ng/ml, Control 66) was 33%. The “% Settlement” value ([1]; Table 5 (Example 5, second test), 5 μg/ml, Control 66) was 33%, the “% Settlement” value ([1]; Table 5 (Example 5, second test), 50 μg/ml, Control 66) was 3% and the “% Settlement” value ([1]; Table 5 (Example 5, second test), 500 μg/ml, Control 66) was 0%. For the same compound, the LC50 (nauplius stage larvae) was 70 µg/mL (≈ 714 µM).
With `C=C1CCOC1=O` [α-methylene-γ-butyrolactone] the “% Settlement” value ([1]; Table 2 (Example 2), 5 ng/ml, Control 62) was 61%, the “% Settlement” value ([1]; Table 2 (Example 2), 50 ng/ml, Control 62) was 62% and the “% Settlement” value ([1]; Table 2 (Example 2), 500 ng/ml, Control 62) was 58%. For the same compound, the “% Settlement” value ([1]; Table 2 (Example 2), 5 μg/ml, Control 62) was 36%, the “% Settlement” value ([1]; Table 2 (Example 2), 50 μg/ml, Control 62) was 0% and the “% Settlement” value ([1]; Table 2 (Example 2), 500 μg/ml, Control 62) was 0%. The “% Settlement” value ([1]; Table 3 (Example 3, second test), 50 ng/ml, Control 66) was 49%, the “% Settlement” value ([1]; Table 3 (Example 3, second test), 500 ng/ml, Control 66) was 53% and the “% Settlement” value ([1]; Table 3 (Example 3, second test), 5 μg/ml, Control 66) was 47%. The “% Settlement” value ([1]; Table 3 (Example 3, second test), 50 μg/ml, Control 66) was 29% and the “% Settlement” value ([1]; Table 3 (Example 3, second test), 500 μg/ml, Control 66) was 5%.
Work on `CC1=C2[C@H]3OC(=O)[C@@H](C)[C@@H]3CC[C@@]2(C)C=CC1=O` [α-santonin] yielded an LC50 (nauplius stage larvae) of 14 µg/mL (≈ 56.8 µM).
With `CCCCCCC1CCC(=O)O1` (stereo not drawn) [γ-decalactone] the “% Settlement” value [1, 2] was 3%, the “% Settlement” value ([1]; Table 7 (Example 7), 5 pg/ml, Control 66) was 45% and the “% Settlement” value ([1]; Table 7 (Example 7), 50 pg/ml, Control 66) was 52%. The “% Settlement” value ([1]; Table 7 (Example 7), 500 pg/ml, Control 66) was 44%, the “% Settlement” value ([1]; Table 7 (Example 7), 5 ng/ml, Control 66) was 32% and the “% Settlement” value ([1]; Table 7 (Example 7), 50 ng/ml, Control 66) was 25%. For the same compound, the “% Settlement” value ([1]; Table 7 (Example 7), 500 ng/ml, Control 66) was 8%, the “% Settlement” value ([1]; Table 7 (Example 7), 5 μg/ml, Control 66) was 25% and the “% Settlement” value ([1]; Table 7 (Example 7), 50 μg/ml, Control 66) was 1%. The “% Settlement” value ([1]; Table 7 (Example 7), 500 μg/ml, Control 66) was 0% and the LC50 (nauplius stage larvae) was 0.004 µg/mL (≈ 0.0235 µM).
For `CCCCC1CCC(=O)O1` (stereo not drawn) [γ-octanolactone], the “% Settlement” value [1, 2] was 39%.
For `CC1CCC(=O)O1` (stereo not drawn) [γ-valerolactone], the “% Settlement” value [1, 2] was 26%, the “% Settlement” value ([1]; Table 8 (Example 8), 500 pg/ml, Control 66) was 55% and the “% Settlement” value ([1]; Table 8 (Example 8), 5 ng/ml, Control 66) was 43%. For the same compound, the “% Settlement” value ([1]; Table 8 (Example 8), 50 ng/ml, Control 66) was 42%, the “% Settlement” value ([1]; Table 8 (Example 8), 500 ng/ml, Control 66) was 48% and the “% Settlement” value ([1]; Table 8 (Example 8), 5 μg/ml, Control 66) was 42%. For the same compound, the “% Settlement” value ([1]; Table 8 (Example 8), 50 μg/ml, Control 66) was 37% and the “% Settlement” value ([1]; Table 8 (Example 8), 500 μg/ml, Control 66) was 52%.
In the case of `CCCCCCC1CCCC(=O)O1` (stereo not drawn) [δ-undecalactone, reference compound], the “% Settlement” value [1, 2] is reported as 40%.
In the case of `O=C1CCCCCO1` [ε-caprolactone, reference compound], the “% Settlement” value [1, 2] is reported as 41%.
